Test results from patent publication US4046878A, “Daunomycin analogues, their preparation and use” (Societa' Farmaceutici Italia S.p.A., priority 1974, dated 1977).
Converted amounts (≈) assume the structure as drawn. Like-named read-outs stand apart in the source and are kept apart here.

Key:
L 1210 leukemia cells = experiment: Leukemia: survival of mice inoculated intraperitoneally with L 1210 leukemia cells; format: in vivo, BDF 1 mice; conditions: for Toxicity / % T/C (mean survival time) / Average Survival Time: once; for % T/C (mean survival time) / Average Survival Time: day after implantation; for Average Survival Time: control 8
Method: The activity of the Test Compound was tested on BDF 1 mice inoculated intraperitoneally with 1×10^5 L 1210 leukemia cells/animal.
The animals were treated once, the day after tumor implantation.
(§1) *% T/C = (mean survival time of treated mice/mean survival time of contro

solid tumors = experiment: Solid tumors: tumor weight in mice grafted subcutaneously with fragments of neoplastic tissue; conditions: for Toxicity / % T/C (mean tumor weight) / Tumor Weight: five days; for Tumor Weight: control 3.036, in g (unit assumed); for therapeutic index (T.I.): Maximum Tolerated dose (LD 10)/Minimum effective dose (T/C 0.10)
Method: In vivo tests on the activity of the Test Compound as compared with adriamycin on solid tumors were carried out on groups of ten Swiss CD 1 mice subcutaneously grafted with fragments of neoplastic tissue and treated intravenously with the respective antibiotics for five days starting form the day following the tumor implantation.
On the tenth day, all the test animals were sacrificed and their tumors removed and weighed.
*The therapeutic index (T.I) is expressed as the ratio between the maximu
tolerated dose (LD10) and the minimum effective dose, according to
Skipper and Schmidt, Cancer Chemother, Rep. 17 : 1-128, 1962. The minimum
effective dose indicates the dose which reduces by 90% the weight of
tumors compared to controls : such 90% reduction correponds to a T/C valu
**% T/C = (mean tumor weight of treated mice/mean tumor weight of control

HeLa cells = experiment: Viability (colony formation) of HeLa cells in vitro; format: cell-based; conditions: for IC50: Homo sapiens, HeLa, colony numbers 6 days later
Method: In vitro studies were carried out on HeLa cells, maintained in Eagle medium supplemented with 10% calf serum. The cells were treated with daunomycin, adriamycin* and the Test Compound for different periods of times. The cell viability was assessed by […] of 200-300 cells/plate. Colony numbers were evaluated 6 days later.

[1] = system: mouse embryo fibroblast cultures; experiment: Cell proliferation in uninfected mouse embryo fibroblast cultures (cytotoxic activity); conditions: 3 days
[2] = system: ascites sarcoma 180 cells; experiment: Ascitic tumors: survival of mice inoculated intraperitoneally with ascites sarcoma 180 cells; format: in vivo, mice (Swiss CD 1); conditions: i.p.
Method: Tests were carried out on groups of 10 mice (Swiss CD 1) inoculated intraperitoneally with 1 × 10^6 ascites sarcoma 180 cells/animal. The animals were treated intraperitoneally with different concentrations of the Test Compound and adriamycin once a day following tumor implantation.
as §1
**The figures in parentheses indicate the number of longterm survivors,
animals, one animal remained alive at the end of 60 days. (*) % T/C =

[3] = system: Moloney Sarcoma Virus (MSV); experiment: Formation of foci by Moloney Sarcoma Virus in infected mouse embryo fibroblast cultures (antiviral activity); format: cell-based
Excerpt: In vitro test on the formation of foci by Moloney Sarcoma Virus (MSV).

[4] = read-out: ID 50, 2 hrs. treatment
[5] = read-out: ID 50, 8 hrs. treatment
[6] = Fibroblast, 72 h, read-out: % Foci (control = 100)

With `CC(=O)C1(O)Cc2c(O)c3c(c(O)c2C(O[C@H]2C[C@H](N)[C@H](O)[C@H](C)O2)C1)C(=O)c1ccccc1C3=O` (mixture of isomers) [Test Compound, mixture of the α-anomers of (-)daunosaminyl(-)4-demethoxydaunomycinone and (-(daunosaminyl(+)4-demethoxydaunomycinone] the Toxicity (L 1210 leukemia cells; 0.75 mg/kg) was 0/10, the “% T/C (mean survival time)” value (L 1210 leukemia cells; 0.75 mg/kg) was 156% and the “Average Survival Time” value (L 1210 leukemia cells; 0.75 mg/kg) was 12.5. The Toxicity (L 1210 leukemia cells; 1.5 mg/kg) was 1/10, the “% T/C (mean survival time)” value (L 1210 leukemia cells; 1.5 mg/kg) was 162% and the “Average Survival Time” value (L 1210 leukemia cells; 1.5 mg/kg) was 13. The Toxicity (L 1210 leukemia cells; 3 mg/kg) was 7/10, the “% T/C (mean survival time)” value (L 1210 leukemia cells; 3 mg/kg) was 87% and the “Average Survival Time” value (L 1210 leukemia cells; 3 mg/kg) was 7. The “average survival time of treated animals, in words” value (L 1210 leukemia cells; non toxic doses tested) was “increased considerably”, the “active dose relative to adriamycin, in words” value (L 1210 leukemia cells; single treatment) was “active at lower doses than adriamycin” and the Toxicity (solid tumors; 0.5 mg/kg i.v.) was 0/10. The “% T/C (mean tumor weight)” value (solid tumors; 0.5 mg/kg i.v., tenth day) was 76%, the “Tumor Weight” value (solid tumors; 0.5 mg/kg i.v., tenth day) was 2.295 and the Toxicity (solid tumors; 1 mg/kg i.v.) was 0/10. For the same compound, the “% T/C (mean tumor weight)” value (solid tumors; 1 mg/kg i.v., tenth day) was 51%, the “Tumor Weight” value (solid tumors; 1 mg/kg i.v., tenth day) was 1.550 and the “inhibition of the tumor growth” value (solid tumors; 1 mg/kg i.v., higher non toxic dose tested, tenth day) was 50%. The Toxicity (solid tumors; 2 mg/kg i.v.) was 3/10, the “% T/C (mean tumor weight)” value (solid tumors; 2 mg/kg i.v., tenth day) was 16% and the “Tumor Weight” value (solid tumors; 2 mg/kg i.v., tenth day) was 0.485. For the same compound, the “therapeutic index (T.I.)” value (solid tumors) was 3.7, the “activity on HeLa cell viability, in words” value (HeLa cells; 2 hours of treatment) was “as active as adriamycin” and the “inhibition of cell viability, in words” value (HeLa cells; 8 hours of treatment) was “higher than the inhibition by either adriamycin or daunomycin”. The IC50 (HeLa cells; 2 hrs. treatment, read-out: ID 50 (the source's name)) was 0.2 µg/mL, the IC50 (HeLa cells; 8 hrs. treatment, read-out: ID 50 (the source's name)) was 0.002 µg/mL and the “cytotoxic activity, in words” value [1] was “the same cytotoxic activity as adriamycin”. For the same compound, the “% T/C, average survival time” value ([2]; Experiment 1, 1 mg/kg day) was 185%, the “number of longterm survivors, i.e., after 60 days” value (“number of longterm survivors” below) ([2]; Experiment 1, 1 mg/kg day) was 0/10 and the “% T/C, average survival time” value ([2]; Experiment 1, 2 mg/kg day) was 61%. The “number of longterm survivors” value ([2]; Experiment 1, 2 mg/kg day) was 1/10, the “% T/C, average survival time” value ([2]; Experiment 1, 5 mg/kg day) was 38% and the “number of longterm survivors” value ([2]; Experiment 1, 5 mg/kg day) was 0/10. For the same compound, the “% T/C, average survival time” value ([2]; Experiment 2, 0.2 mg/kg day) was 146%, the “number of longterm survivors” value ([2]; Experiment 2, 0.2 mg/kg day) was 0/10 and the “% T/C, average survival time” value ([2]; Experiment 2, 1 mg/kg day) was 107%. The “number of longterm survivors” value ([2]; Experiment 2, 1 mg/kg day) was 0/10, the “% T/C, average survival time” value ([2]; Experiment 2, 1.5 mg/kg day) was 79% and the “number of longterm survivors” value ([2]; Experiment 2, 1.5 mg/kg day) was 0/10. The “% T/C, average survival time” value ([2]; Experiment 3, 0.12 mg/kg day) was 115%, the “number of longterm survivors” value ([2]; Experiment 3, 0.12 mg/kg day) was 0/10 and the “% T/C, average survival time” value ([2]; Experiment 3, 0.25 mg/kg day) was 188%. For the same compound, the “number of longterm survivors” value ([2]; Experiment 3, 0.25 mg/kg day) was 1/10, the “% T/C, average survival time” value ([2]; Experiment 3, 0.5 mg/kg day) was 181% and the “number of longterm survivors” value ([2]; Experiment 3, 0.5 mg/kg day) was 0/10. The “% T/C, average survival time” value ([2]; Experiment 3, 1 mg/kg day) was 223%, the “number of longterm survivors” value ([2]; Experiment 3, 1 mg/kg day) was 1/10 and the “active dose relative to adriamycin, in words” value ([2]; once a day) was “active at lower doses than adriamycin”. The “effect on ascitic tumor growth, in words” value ([2]; once a day) was “remarkable effect on ascitic tumor growth”, the “antiviral activity (MSV foci formation), in words” value ([3]; 3 days) was “lesser antiviral activity than adriamycin” and the activity at 0.006 µg/mL ([3]; Fibroblast, 72 h, 0.006 γ/ml, 3 days, read-out: % Foci (control = 100)) was 54%. It also gave an activity at 0.025 µg/mL ([3]; Fibroblast, 72 h, 0.0250 γ/ml, 3 days, read-out: % Foci (control = 100)) of 12%, an activity at 0.1 µg/mL ([3]; Fibroblast, 72 h, 0.1 γ/ml, 3 days, read-out: % Foci (control = 100)) of 0% and an activity at 0.6 µg/mL ([3]; Fibroblast, 72 h, 0.6 γ/ml, 3 days, read-out: % Foci (control = 100)) of 0%.

For `COc1cccc2c1C(=O)c1c(O)c3c(c(O)c1C2=O)C[C@@](O)(C(=O)CO)C[C@@H]3O[C@H]1C[C@H](N)[C@H](O)[C@H](C)O1` [Adriamycin, reference compound], the Toxicity (L 1210 leukemia cells; 2.5 mg/kg) was 0/10, the “% T/C (mean survival time)” value (L 1210 leukemia cells; 2.5 mg/kg) was 156% and the “Average Survival Time” value (L 1210 leukemia cells; 2.5 mg/kg) was 12.5. The Toxicity (L 1210 leukemia cells; 5 mg/kg) was 0/10, the “% T/C (mean survival time)” value (L 1210 leukemia cells; 5 mg/kg) was 175% and the “Average Survival Time” value (L 1210 leukemia cells; 5 mg/kg) was 14. For the same compound, the Toxicity (L 1210 leukemia cells; 10 mg/kg) was 4/10, the “% T/C (mean survival time)” value (L 1210 leukemia cells; 10 mg/kg) was 200% and the “Average Survival Time” value (L 1210 leukemia cells; 10 mg/kg) was 16. For the same compound, the Toxicity (solid tumors; 2.5 mg/kg i.v.) was 0/10, the “% T/C (mean tumor weight)” value (solid tumors; 2.5 mg/kg i.v., tenth day) was 48% and the “Tumor Weight” value (solid tumors; 2.5 mg/kg i.v., tenth day) was 1.465. The Toxicity (solid tumors; 3.5 mg/kg i.v.) was 7/10, the “% T/C (mean tumor weight)” value (solid tumors; 3.5 mg/kg i.v., tenth day) was 12% and the “Tumor Weight” value (solid tumors; 3.5 mg/kg i.v., tenth day) was 0.364. The “therapeutic index (T.I.)” value (solid tumors) was 1.8, the IC50 (HeLa cells; [4]) was 0.2 µg/mL (≈ 0.368 µM) and the IC50 (HeLa cells; [5]) was 0.039 µg/mL (≈ 0.0718 µM). For the same compound, the “% T/C, average survival time” value ([2]; Experiment 1, 1 mg/kg day) was 146%, the “number of longterm survivors” value ([2]; Experiment 1, 1 mg/kg day) was 1/9 and the “% T/C, average survival time” value ([2]; Experiment 1, 2 mg/kg day) was 400%. The “number of longterm survivors” value ([2]; Experiment 1, 2 mg/kg day) was 5/10, the “% T/C, average survival time” value ([2]; Experiment 1, 5 mg/kg day) was 311% and the “number of longterm survivors” value ([2]; Experiment 1, 5 mg/kg day) was 4/10. For the same compound, the “% T/C, average survival time” value ([2]; Experiment 2, 0.2 mg/kg day) was 107%, the “number of longterm survivors” value ([2]; Experiment 2, 0.2 mg/kg day) was 0/10 and the “% T/C, average survival time” value ([2]; Experiment 2, 1 mg/kg day) was 143%. The “number of longterm survivors” value ([2]; Experiment 2, 1 mg/kg day) was 1/10, the “% T/C, average survival time” value ([2]; Experiment 2, 5 mg/kg day) was 225% and the “number of longterm survivors” value ([2]; Experiment 2, 5 mg/kg day) was 1/10. The “% T/C, average survival time” value ([2]; Experiment 2, 10 mg/kg day) was 193%, the “number of longterm survivors” value ([2]; Experiment 2, 10 mg/kg day) was 0/10 and the “% T/C, average survival time” value ([2]; Experiment 3, 0.1 mg/kg day) was 100%. For the same compound, the “number of longterm survivors” value ([2]; Experiment 3, 0.1 mg/kg day) was 0/10, the “% T/C, average survival time” value ([2]; Experiment 3, 1 mg/kg day) was 169% and the “number of longterm survivors” value ([2]; Experiment 3, 1 mg/kg day) was 1/9. For the same compound, the activity at 0.006 µg/mL [3, 6] was 26%, the activity at 0.0125 µg/mL [3, 6] was 0% and the activity at 0.025 µg/mL [3, 6] was 0%.

Work on `COc1cccc2c1C(=O)c1c(O)c3c(c(O)c1C2=O)C[C@@](O)(C(C)=O)C[C@@H]3O[C@H]1C[C@H](N)[C@H](O)[C@H](C)O1` [Daunomycin] yielded an IC50 (HeLa cells; [4]) of 0.095 µg/mL (≈ 0.18 µM) and an IC50 (HeLa cells; [5]) of 0.023 µg/mL (≈ 0.0436 µM).
